# Where two headings read alike, the source gives them in different places.
# Legend:
# [1] = tested on: Staphylococcus aureus; experiment: Bacterial panel testing, MIC by broth microdilution; format: cell-based; settings: 20-24 hours growth
# How it was run: (§1)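 Read-out: clear (no-growth) wells scored after 20-24 h growth to define compound potency. Inoculum was McFarland-matched bacteria from 2-4 h cultures at 37° C in strain-appropriate Mueller-Hinton or Brain Heart infusion media. Compound (10 μg/ml DMSO stock) was serially diluted twofold across plate columns.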
# [2] = tested on: Pseudomonas aeruginosa; experiment: as above; format: cell-based; settings: 20-24 hours growth
# How it was run: as §1
# [3] = tested on: Salmonella choleraesuis; experiment: as above; format: cell-based; settings: 20-24 hours growth
# How it was run: as §1
# [4] = tested on: Enterococcus faecium; experiment: as above; format: cell-based; settings: 20-24 hours growth
# How it was run: as §1
# [5] = tested on: Lungs cancer cells A549
# [6] = tested on: Eschericia coli; experiment: Bacterial panel testing, MIC by broth microdilution; format: cell-based; settings: 20-24 hours growth
# How it was run: as §1
# [7] = tested on: Lungs cancer cells A549; experiment: Mammalian cytotoxicity
# [8] = tested on: Bacillus atrophaeus; experiment: Bacterial panel testing, MIC by broth microdilution; format: cell-based; settings: 20-24 hours growth
# How it was run: as §1
Compound,MIC SA [1],MIC PA [2],MIC SC [3],MIC EF [4],Mammalian Cytotoxicity IC50 [5],MIC EC [6],Mammalian Cytotoxicity IC50 [7],MIC BA [8]
Cl.Cl.Cl.Cl.Cl.Cl.Cl.NCCCSC[C@H]1O[C@@H]2O[C@H]3[C@H](O)[C@@H](O)[C@@H](O[C@H]4[C@H](O)[C@@H](O)[C@@H](O[C@H]5[C@H](O)[C@@H](O)[C@@H](O[C@H]6[C@H](O)[C@@H](O)[C@@H](O[C@H]7[C@H](O)[C@@H](O)[C@@H](O[C@H]8[C@H](O)[C@@H](O)[C@@H](O[C@H]1[C@H](O)[C@H]2O)O[C@@H]8CSCCCN)O[C@@H]7CSCCCN)O[C@@H]6CSCCCN)O[C@@H]5CSCCCN)O[C@@H]4CSCCCN)O[C@@H]3CSCCCN,>200 µg/mL,>200 µg/mL,>200 µg/mL,>200 µg/mL,191 µg/mL,,,
N[C@@H](Cc1ccccc1)C(=O)NC[C@H]1O[C@@H]2O[C@H]3[C@H](O)[C@@H](O)[C@@H](O[C@H]4[C@H](O)[C@@H](O)[C@@H](O[C@H]5[C@H](O)[C@@H](O)[C@@H](O[C@H]6[C@H](O)[C@@H](O)[C@@H](O[C@H]7[C@H](O)[C@@H](O)[C@@H](O[C@H]8[C@H](O)[C@@H](O)[C@@H](O[C@H]1[C@H](O)[C@H]2O)O[C@@H]8CNC(=O)[C@@H](N)Cc1ccccc1)O[C@@H]7CNC(=O)[C@@H](N)Cc1ccccc1)O[C@@H]6CNC(=O)[C@@H](N)Cc1ccccc1)O[C@@H]5CNC(=O)[C@@H](N)Cc1ccccc1)O[C@@H]4CNC(=O)[C@@H](N)Cc1ccccc1)O[C@@H]3CNC(=O)[C@@H](N)Cc1ccccc1,>200 µg/mL,>200 µg/mL,>200 µg/mL,>200 µg/mL,,>200 µg/mL,>2000 µg/mL,
CC(C)C[C@H](N)C(=O)NC[C@H]1O[C@@H]2O[C@H]3[C@H](O)[C@@H](O)[C@@H](O[C@H]4[C@H](O)[C@@H](O)[C@@H](O[C@H]5[C@H](O)[C@@H](O)[C@@H](O[C@H]6[C@H](O)[C@@H](O)[C@@H](O[C@H]7[C@H](O)[C@@H](O)[C@@H](O[C@H]8[C@H](O)[C@@H](O)[C@@H](O[C@H]1[C@H](O)[C@H]2O)O[C@@H]8CNC(=O)[C@@H](N)CC(C)C)O[C@@H]7CNC(=O)[C@@H](N)CC(C)C)O[C@@H]6CNC(=O)[C@@H](N)CC(C)C)O[C@@H]5CNC(=O)[C@@H](N)CC(C)C)O[C@@H]4CNC(=O)[C@@H](N)CC(C)C)O[C@@H]3CNC(=O)[C@@H](N)CC(C)C,>200 µg/mL,>200 µg/mL,>200 µg/mL,>200 µg/mL,,>200 µg/mL,215 µg/mL,
Cl.Cl.Cl.Cl.Cl.Cl.NCC1OC2OC3C(CN)OC(OC4C(CN)OC(OC5C(CN)OC(OC6C(CN)OC(OC7C(CN)OC(OC1C(O)C2O)C(O)C7O)C(O)C6O)C(O)C5O)C(O)C4O)C(O)C3O (stereo not shown),>200 µg/mL,,>200 µg/mL,>200 µg/mL,,>200 µg/mL,109.3 µg/mL,>200 µg/mL
Cl.Cl.Cl.Cl.Cl.Cl.Cl.NCCCCCCSC[C@H]1O[C@@H]2O[C@H]3[C@H](O)[C@@H](O)[C@@H](O[C@H]4[C@H](O)[C@@H](O)[C@@H](O[C@H]5[C@H](O)[C@@H](O)[C@@H](O[C@H]6[C@H](O)[C@@H](O)[C@@H](O[C@H]7[C@H](O)[C@@H](O)[C@@H](O[C@H]8[C@H](O)[C@@H](O)[C@@H](O[C@H]1[C@H](O)[C@H]2O)O[C@@H]8CSCCCCCCN)O[C@@H]7CSCCCCCCN)O[C@@H]6CSCCCCCCN)O[C@@H]5CSCCCCCCN)O[C@@H]4CSCCCCCCN)O[C@@H]3CSCCCCCCN,>200 µg/mL,>200 µg/mL,,>200 µg/mL,321 µg/mL,,,
Cl.Cl.Cl.Cl.Cl.Cl.Cl.NCc1ccccc1CSCC1OC2OC3C(CSCc4ccccc4CN)OC(OC4C(CSCc5ccccc5CN)OC(OC5C(CSCc6ccccc6CN)OC(OC6C(CSCc7ccccc7CN)OC(OC7C(CSCc8ccccc8CN)OC(OC8C(CSCc9ccccc9CN)OC(OC1C(O)C2O)C(O)C8O)C(O)C7O)C(O)C6O)C(O)C5O)C(O)C4O)C(O)C3O (stereo not shown),,>100 µg/mL,,>100 µg/mL,193.5 µg/mL,,,
CC(C)C[C@H](NC(=O)OC(C)(C)C)C(=O)NC[C@H]1O[C@@H]2O[C@H]3[C@H](O)[C@@H](O)[C@@H](O[C@H]4[C@H](O)[C@@H](O)[C@@H](O[C@H]5[C@H](O)[C@@H](O)[C@@H](O[C@H]6[C@H](O)[C@@H](O)[C@@H](O[C@H]7[C@H](O)[C@@H](O)[C@@H](O[C@H]8[C@H](O)[C@@H](O)[C@@H](O[C@H]1[C@H](O)[C@H]2O)O[C@@H]8CNC(=O)[C@H](CC(C)C)NC(=O)OC(C)(C)C)O[C@@H]7CNC(=O)[C@H](CC(C)C)NC(=O)OC(C)(C)C)O[C@@H]6CNC(=O)[C@H](CC(C)C)NC(=O)OC(C)(C)C)O[C@@H]5CNC(=O)[C@H](CC(C)C)NC(=O)OC(C)(C)C)O[C@@H]4CNC(=O)[C@H](CC(C)C)NC(=O)OC(C)(C)C)O[C@@H]3CNC(=O)[C@H](CC(C)C)NC(=O)OC(C)(C)C,>200 µg/mL,>200 µg/mL,>200 µg/mL,>200 µg/mL,,>200 µg/mL,144 µg/mL,>200 µg/mL
N=C(N)NCCSC[C@H]1O[C@@H]2O[C@H]3[C@H](O)[C@@H](O)[C@@H](O[C@H]4[C@H](O)[C@@H](O)[C@@H](O[C@H]5[C@H](O)[C@@H](O)[C@@H](O[C@H]6[C@H](O)[C@@H](O)[C@@H](O[C@H]7[C@H](O)[C@@H](O)[C@@H](O[C@H]8[C@H](O)[C@@H](O)[C@@H](O[C@H]1[C@H](O)[C@H]2O)O[C@@H]8CSCCNC(=N)N)O[C@@H]7CSCCNC(=N)N)O[C@@H]6CSCCNC(=N)N)O[C@@H]5CSCCNC(=N)N)O[C@@H]4CSCCNC(=N)N)O[C@@H]3CSCCNC(=N)N,>200 µg/mL,>200 µg/mL,>200 µg/mL,>200 µg/mL,,>200 µg/mL,510 µg/mL,
NCCCCC(=O)NC[C@H]1O[C@@H]2O[C@H]3[C@H](O)[C@@H](O)[C@@H](O[C@H]4[C@H](O)[C@@H](O)[C@@H](O[C@H]5[C@H](O)[C@@H](O)[C@@H](O[C@H]6[C@H](O)[C@@H](O)[C@@H](O[C@H]7[C@H](O)[C@@H](O)[C@@H](O[C@H]8[C@H](O)[C@@H](O)[C@@H](O[C@H]1[C@H](O)[C@H]2O)O[C@@H]8CNC(=O)CCCCN)O[C@@H]7CNC(=O)CCCCN)O[C@@H]6CNC(=O)CCCCN)O[C@@H]5CNC(=O)CCCCN)O[C@@H]4CNC(=O)CCCCN)O[C@@H]3CNC(=O)CCCCN,>200 µg/mL,>200 µg/mL,>200 µg/mL,>200 µg/mL,,>200 µg/mL,755 µg/mL,
Cl.Cl.Cl.Cl.Cl.Cl.Cl.Cl.Cl.Cl.Cl.Cl.Cl.Cl.NCCCC(N)C(=O)NCC1OC2OC3C(CNC(=O)C(N)CCCN)OC(OC4C(CNC(=O)C(N)CCCN)OC(OC5C(CNC(=O)C(N)CCCN)OC(OC6C(CNC(=O)C(N)CCCN)OC(OC7C(CNC(=O)C(N)CCCN)OC(OC8C(CNC(=O)C(N)CCCN)OC(OC1C(O)C2O)C(O)C8O)C(O)C7O)C(O)C6O)C(O)C5O)C(O)C4O)C(O)C3O (stereo not shown),>200 µg/mL,,>200 µg/mL,>200 µg/mL,860 µg/mL,>200 µg/mL,,
CC(C)(C)OC(=O)N[C@@H](Cc1ccccc1)C(=O)NC[C@H]1O[C@@H]2O[C@H]3[C@H](O)[C@@H](O)[C@@H](O[C@H]4[C@H](O)[C@@H](O)[C@@H](O[C@H]5[C@H](O)[C@@H](O)[C@@H](O[C@H]6[C@H](O)[C@@H](O)[C@@H](O[C@H]7[C@H](O)[C@@H](O)[C@@H](O[C@H]8[C@H](O)[C@@H](O)[C@@H](O[C@H]1[C@H](O)[C@H]2O)O[C@@H]8CNC(=O)[C@H](Cc1ccccc1)NC(=O)OC(C)(C)C)O[C@@H]7CNC(=O)[C@H](Cc1ccccc1)NC(=O)OC(C)(C)C)O[C@@H]6CNC(=O)[C@H](Cc1ccccc1)NC(=O)OC(C)(C)C)O[C@@H]5CNC(=O)[C@H](Cc1ccccc1)NC(=O)OC(C)(C)C)O[C@@H]4CNC(=O)[C@H](Cc1ccccc1)NC(=O)OC(C)(C)C)O[C@@H]3CNC(=O)[C@H](Cc1ccccc1)NC(=O)OC(C)(C)C,>200 µg/mL,>200 µg/mL,>200 µg/mL,>200 µg/mL,,>200 µg/mL,193 µg/mL,>200 µg/mL

# From patent US20110071108A1, “Beta-Cyclodextrin Derivatives as Antibacterial Agents” (Pinnacle Pharmaceuticals, Inc., priority 2005, published 2011)
